Data set [1] has as its system PCSK9. The experiment in a line: PCSK9 lowering in sandwich culture human hepatocytes (SCHH). The format is cell-based. The settings on record: maximum response versus vehicle; at 8 h at 100 μM.
The subject of data set [2] is human PCSK9. The experiment in a line: Cell Free PCSK9 Assay (PCSK9-luciferase RNA translated in HeLa cell lysate). As to conditions: 30° C. for 45 minutes, luciferase readout, top concentration 100 μM. It is filed as biochemical.
Data set [3] relates to human PCSK9. The experiment in a line: PCSK9 AlphaLISA assay, PCSK9 lowering in WT7 cells. As to conditions: WT7 cells (Huh7 stably over-expressing human PCSK9); secreted PCSK9 by AlphaLISA; overnight incubation (16-24 h); top concentration 20 μM; read-out: Cell Based PCSK9 IC50.
Data set [4] deals with PCSK9. The experiment in a line: Global Proteomic Assay (SILAC), PCSK9 protein expression in conditioned media. It is filed as cell-based, human. As to conditions: Huh7 cells.
Method: At the end of the indicated time points, media was removed and protease/phosphatase inhibitors added prior to freezing at −80° C. Cell layers were rinsed with PBS before adding cell dissociation buffer to detach the cells, cells were collected by rinsing with PBS and spun at 1000 rpm for 5 minutes. The cell pellet was resuspended in PBS for washing, spun at 1000 rpm for 5 minutes and the supernatant aspirated. The cell layer was then frozen at −80° C. and both the media and cell pellet were subjected to proteomic analysis.
(§1) For proteomic analysis of secreted proteins, equal volume of the conditioned media from light, medium, and heavy cells was mixed, followed by depletion of bovine serum albumin by anti-BSA agarose beads. The resulting proteins were subsequently concentrated using 3 KDa MWCO spin columns, reduced with dithiothreitol and alkylated with iodoacetamide.
The proteins derived from conditioned media and cell pellets were subsequently fractionated by SDS-PAGE. […]
(§2) The peptide mixtures were reconstituted in 0.1% formic acid. […] Peptide identification and relative protein quantification were carried out by searching the mass spectra against the human IPI database using Mascot search engine on Proteome Discoverer 1.3. […] Changes in protein expression upon compound treatment were calculated from the relative intensity of isotope-labeled and unlabeled peptides derived from that protein.
The test system of data set [5] is PCSK9. The experiment in a line: PCSK9 lowering in sandwich culture human hepatocytes (SCHH). As to conditions: maximum response versus vehicle. The format is cell-based.
The subject of data set [6] is Huh7 cells. Briefly: Global Proteomic Assay (SILAC), non-PCSK9 proteins with decreased expression. The format is cell-based, human.
Method: Cell layers were rinsed with PBS before adding cell dissociation buffer to detach the cells, cells were collected by rinsing with PBS and spun at 1000 rpm for 5 minutes. The cell pellet was resuspended in PBS for washing, spun at 1000 rpm for 5 minutes and the supernatant aspirated. The cell layer was then frozen at −80° C. and both the media and cell pellet were subjected to proteomic analysis.
as §1
For the analysis of cellular proteins, cell pellets were lysed in SDS-PAGE loading buffer in the presence of protease/phosphatase inhibitor cocktails. Cell lysates were centrifuged at 12000×g at 4° C. for 10 min. The resulting supernatants were collected, and protein concentrations were measured by BCA assay. Equal amount proteins in the light, medium, and heavy cell lysates were combined, reduced with dithiothreitol and alkylated with iodoacetamide.
The proteins derived from conditioned media and cell pellets were subsequently fractionated by SDS-PAGE. The gels were stained with Coomassie blue. After destaining, the gels were cut into 12-15 bands. Proteins were in-gel digested by trypsin overnight, after which peptides were extracted from the gels with CH3CN:1% formic acid (1:1, v/v). The resulting peptide mixtures were desalted with C18 Stage-Tips, dried in speedvac and stored at −20° C. until further analysis.
as §2

A value given as a limit tells only on which side of the number the result lay.

Consider `Cn1ncc(-c2ccc(C(=O)N(c3ncccc3Cl)[C@@H]3CCCNC3)cc2)c1C(=O)O` [Example 7, 4-(4-{(3-chloropyridin-2-yl)[(3R)-piperidin-3-yl]carbamoyl}phenyl)-1-methyl-1H-pyrazole-5-carboxylic acid], for which the “Sandwich Culture Hepatocyte (SCHH) PCSK9 Lowering” value in data set [1] turned out to be 26% at 8 h at 100 μM. In addition, the IC50 in data set [2] was 18 µM; in data set [3], greater than 20 µM.
For the molecule `CCOC(=O)O[C@H](C)OC(=O)c1c(-c2ccc(C(=O)N(c3ncccc3Cl)[C@@H]3CCCNC3)cc2)cnn1C` [Example 15b, (1R)-1-[(ethoxycarbonyl)oxy]ethyl 4-(4-{(3-chloropyridin-2-yl)[(3R)-piperidin-3-yl]carbamoyl}phenyl)-1-methyl-1H-pyrazole-5-carboxylate], the “PCSK9 in conditioned media relative to vehicle” value in data set [4] (10 μM, 4 and 16 h post-treatment) is listed as “significantly reduced”. The “Sandwich Culture Hepatocyte (SCHH) PCSK9 Lowering” value in data set [5] (at 8 h at 30 μM) is listed as 58% at 8 h at 30 μM. In addition, the IC50 amounted to 5 µM in data set [2] and 10.7 µM in data set [3]. Also, in data set [6] (10 μM, 4 and 16 h, two proteins (Apolipoprotein A2, Cadherin 1) of approx. 1500), the “additional proteins in conditioned media with significant decrease in expression” value is recorded as “approx. 0.13%”.
Take `O=C(c1ccc(-n2nnc3cccnc32)cc1)N(c1ncccc1Cl)[C@@H]1CCCNC1` [Example 16, N-(3-chloropyridin-2-yl)-N-[(3R)-piperidin-3-yl]-4-(3H-[1,2,3]triazolo[4,5-b]pyridin-3-yl)benzamide]: in data set [4] (16 hours of treatment, 0.3 μM), the “decrease of PCSK9 protein expression in the conditioned media” value was found to be 2 fold. The “Sandwich Culture Hepatocyte (SCHH) PCSK9 Lowering” value in data set [5] (at 8 h at 30 μM) is 87% at 8 h at 30 μM. In data set [2], this molecule gave a concentration for half-maximal inhibition (IC50) of 0.52 µM. The “cellular proteins significantly decreased” value in data set [6] (2 proteins (Apolipoprotein C3, Cadherin 1) of greater than 3000 cellular proteins) is recorded as 0.067%. Further, in data set [6] (4 of 4083 proteins), the “additional proteins with significant reduction in expression (media and cells)” value worked out at 0.098%.
`Cc1cccnc1N(C(=O)c1ccc(-c2cnn(C)c2-c2nn[nH]n2)cc1)[C@@H]1CCCNC1` [Example 17, N-(3-methylpyridin-2-yl)-4-[1-methyl-5-(2H-tetrazol-5-yl)-1H-pyrazol-4-yl]-N-[(3R)-piperidin-3-yl]benzamide]: in data set [1], the “Sandwich Culture Hepatocyte (SCHH) PCSK9 Lowering” value stood at 63% at 8 h at 100 uM. For the same molecule, the IC50 is 3.05 µM in data set [2] and greater than 20 µM in data set [3].
With `Cc1cccnc1N(C(=O)c1ccc(-c2cnn(C)c2-c2noc(=O)[nH]2)cc1)[C@@H]1CCCNC1` [Example 18, 4-[1-methyl-5-(5-oxo-4,5-dihydro-1,2,4-oxadiazol-3-yl)-1H-pyrazol-4-yl]-N-(3-methylpyridin-2-yl)-N-[(3R)-piperidin-3-yl]benzamide], the “Sandwich Culture Hepatocyte (SCHH) PCSK9 Lowering” value in data set [1] was 15% at 8 h at 100 uM. For the same molecule, the IC50 in data set [2] was 5.61 µM; in data set [3] it was greater than 20 µM.
For the molecule `COC(=O)c1c(-c2ccc(C(=O)N(c3ncccc3Cl)[C@@H]3CCCNC3)cc2)cnn1C` [Example 10, Methyl 4-(4-{(3-chloropyridin-2-yl)[(3R)-piperidin-3-yl]carbamoyl}phenyl)-1-methyl-1H-pyrazole-5-carboxylate], the “Sandwich Culture Hepatocyte (SCHH) PCSK9 Lowering” value in data set [5] (at 8 h at 30 μM) came to 87% at 8 h at 30 μM. Besides, the IC50 in data set [2] came out at 0.64 µM; in data set [3], 1.5 µM.
Turning to `COC(=O)c1c(-c2ccc(C(=O)N(c3ncccc3C)[C@@H]3CCCNC3)cc2)cnn1C` [Example 13, Methyl 1-methyl-4-(4-{(3-methylpyridin-2-yl)[(3R)-piperidin-3-yl]carbamoyl}phenyl)-1H-pyrazole-5-carboxylate], the “Sandwich Culture Hepatocyte (SCHH) PCSK9 Lowering” value in data set [5] (at 8 h at 30 μM) is on record as 83% at 8 h at 30 μM. In addition, the IC50 came out at 0.8 µM in data set [2] and 2.3 µM in data set [3].
In the case of `CCOC(=O)O[C@@H](C)OC(=O)c1c(-c2ccc(C(=O)N(c3ncccc3Cl)[C@@H]3CCCNC3)cc2)cnn1C` [Example 15a, (1S)-1-[(ethoxycarbonyl)oxy]ethyl 4-(4-{(3-chloropyridin-2-yl)[(3R)-piperidin-3-yl]carbamoyl}phenyl)-1-methyl-1H-pyrazole-5-carboxylate], the “Sandwich Culture Hepatocyte (SCHH) PCSK9 Lowering” value in data set [5] (at 8 h at 30 μM) is 72% at 8 h at 30 μM. In addition, the figures for the IC50 in data set [2] and in data set [3] were 3.1 µM and 7.3 µM, respectively.
With `CCOC(=O)OC(C(C)C)n1nnc(-c2c(-c3ccc(C(=O)N(c4ncccc4C)[C@@H]4CCCNC4)cc3)cnn2C)n1` (single isomer, unassigned) [Example 35], the “Sandwich Culture Hepatocyte (SCHH) PCSK9 Lowering” value in data set [5] (at 6 h at 30 uM) is listed as 28% at 6 h at 30 uM. Besides, the IC50 in data set [2] is 6.2 µM; in data set [3] it was greater than 20 µM.

The record behind these values is patent US9227956B2 (Pfizer Inc., priority 2013, dated 2016).
